Measurements from ChEMBL document CHEMBL1629608, “Variations in amino acid composition of antisense peptide-phosphorodiamidate morpholino oligomer affect potency against Escherichia coli in vitro and in vivo” (Antimicrob Agents Chemother, 2009).
≈ marks a conversion by molar mass, not a printed value.

System: Escherichia coli
Experiment: Antibacterial activity against Escherichia coli K-12 W3110 by microdilution method
Assay type: functional
Details: K-12 substr. W3110

Row | Structure (SMILES) | MIC [µM]
1 | Cc1cn([C@H]2CN(P(=O)(OC[C@@H]3CN(P(=O)(OC[C@@H]4CN(P(=O)(OC[C@@H]5CN(P(=O)(OC[C@@H]6CN(P(=O)(OC[C@@H]7CN(P(=O)(OC[C@@H]8CN(P(=O)(OC[C@@H]9CN(P(=O)(OC[C@@H]%10CNC[C@H](n%11cnc%12c(=O)[nH]c(N)nc%12%11)O%10)N(C)C)C[C@H](n%10cc(C)c(=O)[nH]c%10=O)O9)N(C)C)C[C@H](n9cnc%10c(=O)[nH]c(N)nc%109)O8)N(C)C)C[C@H](n8cnc9c(N)ncnc98)O7)N(C)C)C[C@H](n7cc(C)c(=O)[nH]c7=O)O6)N(C)C)C[C@H](n6cnc7c(N)ncnc76)O5)N(C)C)C[C@H](n5cnc6c(=O)[nH]c(N)nc65)O4)N(C)C)C[C@H](n4ccc(N)nc4=O)O3)N(C)C)C[C@@H](COP(=O)(N(C)C)N3C[C@@H](COP(=O)(N(C)C)N4C[C@@H](COP(=O)(N(C)C)N5CCN(C(=O)CCNC(=O)CCCCCNC(=O)CCCCCNC(=O)[C@H](CCCNC(=N)N)NC(=O)CCCCCNC(=O)CCCCCNC(=O)[C@H](CCCNC(=N)N)NC(=O)CCCCCNC(=O)CCCCCNC(=O)[C@@H](N)CCCNC(=N)N)CC5)O[C@@H](n5ccc(N)nc5=O)C4)O[C@@H](n4cc(C)c(=O)[nH]c4=O)C3)O2)c(=O)[nH]c1=O (stereo partly specified) | 20 (≈ 100 µg/mL)
2 | Cc1cn([C@H]2CN(P(=O)(OC[C@@H]3CN(P(=O)(OC[C@@H]4CN(P(=O)(OC[C@@H]5CN(P(=O)(OC[C@@H]6CN(P(=O)(OC[C@@H]7CN(P(=O)(OC[C@@H]8CN(P(=O)(OC[C@@H]9CN(P(=O)(OC[C@@H]%10CNC[C@H](n%11cnc%12c(=O)[nH]c(N)nc%12%11)O%10)N(C)C)C[C@H](n%10cc(C)c(=O)[nH]c%10=O)O9)N(C)C)C[C@H](n9cnc%10c(=O)[nH]c(N)nc%109)O8)N(C)C)C[C@H](n8cnc9c(N)ncnc98)O7)N(C)C)C[C@H](n7cc(C)c(=O)[nH]c7=O)O6)N(C)C)C[C@H](n6cnc7c(N)ncnc76)O5)N(C)C)C[C@H](n5cnc6c(=O)[nH]c(N)nc65)O4)N(C)C)C[C@H](n4ccc(N)nc4=O)O3)N(C)C)C[C@@H](COP(=O)(N(C)C)N3C[C@@H](COP(=O)(N(C)C)N4C[C@@H](COP(=O)(N(C)C)N5CCN(C(=O)CCNC(=O)CCCCCNC(=O)[C@@H](N)CCCNC(=O)CCCCCNC(=O)[C@@H](N)CCCNC(=O)CCCCCNC(=O)[C@@H](N)CCCNC(=O)CCCCCNC(=O)[C@@H](N)CCCNC(=O)CCCCCNC(=O)[C@@H](N)CCCNC(=O)CCCCCNC(=O)[C@@H](N)CCCN)CC5)O[C@@H](n5ccc(N)nc5=O)C4)O[C@@H](n4cc(C)c(=O)[nH]c4=O)C3)O2)c(=O)[nH]c1=O (stereo partly specified) | > 80
3 | Cc1cn([C@H]2CN(P(=O)(OC[C@@H]3CN(P(=O)(OC[C@@H]4CN(P(=O)(OC[C@@H]5CN(P(=O)(OC[C@@H]6CN(P(=O)(OC[C@@H]7CN(P(=O)(OC[C@@H]8CN(P(=O)(OC[C@@H]9CN(P(=O)(OC[C@@H]%10CNC[C@H](n%11cnc%12c(=O)[nH]c(N)nc%12%11)O%10)N(C)C)C[C@H](n%10cc(C)c(=O)[nH]c%10=O)O9)N(C)C)C[C@H](n9cnc%10c(=O)[nH]c(N)nc%109)O8)N(C)C)C[C@H](n8cnc9c(N)ncnc98)O7)N(C)C)C[C@H](n7cc(C)c(=O)[nH]c7=O)O6)N(C)C)C[C@H](n6cnc7c(N)ncnc76)O5)N(C)C)C[C@H](n5cnc6c(=O)[nH]c(N)nc65)O4)N(C)C)C[C@H](n4ccc(N)nc4=O)O3)N(C)C)C[C@@H](COP(=O)(N(C)C)N3C[C@@H](COP(=O)(N(C)C)N4C[C@@H](COP(=O)(N(C)C)N5CCN(C(=O)CCNC(=O)CCCCCNC(=O)[C@@H](N)CCCNC(=O)[C@H](Cc6ccccc6)NC(=O)[C@H](Cc6ccccc6)NC(=O)[C@@H](N)CCCNC(=O)[C@H](Cc6ccccc6)NC(=O)[C@H](Cc6ccccc6)NC(=O)[C@@H](N)CCCNC(=O)[C@H](Cc6ccccc6)NC(=O)[C@H](Cc6ccccc6)NC(=O)[C@@H](N)CCCN)CC5)O[C@@H](n5ccc(N)nc5=O)C4)O[C@@H](n4cc(C)c(=O)[nH]c4=O)C3)O2)c(=O)[nH]c1=O (stereo partly specified) | > 80
4 | Cc1cn([C@H]2CN(P(=O)(OC[C@@H]3CN(P(=O)(OC[C@@H]4CN(P(=O)(OC[C@@H]5CN(P(=O)(OC[C@@H]6CN(P(=O)(OC[C@@H]7CN(P(=O)(OC[C@@H]8CN(P(=O)(OC[C@@H]9CN(P(=O)(OC[C@@H]%10CNC[C@H](n%11cnc%12c(=O)[nH]c(N)nc%12%11)O%10)N(C)C)C[C@H](n%10cc(C)c(=O)[nH]c%10=O)O9)N(C)C)C[C@H](n9cnc%10c(=O)[nH]c(N)nc%109)O8)N(C)C)C[C@H](n8cnc9c(N)ncnc98)O7)N(C)C)C[C@H](n7cc(C)c(=O)[nH]c7=O)O6)N(C)C)C[C@H](n6cnc7c(N)ncnc76)O5)N(C)C)C[C@H](n5cnc6c(=O)[nH]c(N)nc65)O4)N(C)C)C[C@H](n4ccc(N)nc4=O)O3)N(C)C)C[C@@H](COP(=O)(N(C)C)N3C[C@@H](COP(=O)(N(C)C)N4C[C@@H](COP(=O)(N(C)C)N5CCN(C(=O)CCNC(=O)CCCCCNC(=O)[C@H](CCCNC(=N)N)NC(=O)CCCCCNC(=O)[C@H](CCCNC(=N)N)NC(=O)CCCCCNC(=O)[C@H](CCCNC(=N)N)NC(=O)CCCCCNC(=O)[C@@H](N)CCCNC(=N)N)CC5)O[C@@H](n5ccc(N)nc5=O)C4)O[C@@H](n4cc(C)c(=O)[nH]c4=O)C3)O2)c(=O)[nH]c1=O (stereo partly specified) | 80 (≈ 394 µg/mL)
5 | Cc1cn([C@H]2CN(P(=O)(OC[C@@H]3CN(P(=O)(OC[C@@H]4CN(P(=O)(OC[C@@H]5CN(P(=O)(OC[C@@H]6CN(P(=O)(OC[C@@H]7CN(P(=O)(OC[C@@H]8CN(P(=O)(OC[C@@H]9CN(P(=O)(OC[C@@H]%10CNC[C@H](n%11cnc%12c(=O)[nH]c(N)nc%12%11)O%10)N(C)C)C[C@H](n%10cc(C)c(=O)[nH]c%10=O)O9)N(C)C)C[C@H](n9cnc%10c(=O)[nH]c(N)nc%109)O8)N(C)C)C[C@H](n8cnc9c(N)ncnc98)O7)N(C)C)C[C@H](n7cc(C)c(=O)[nH]c7=O)O6)N(C)C)C[C@H](n6cnc7c(N)ncnc76)O5)N(C)C)C[C@H](n5cnc6c(=O)[nH]c(N)nc65)O4)N(C)C)C[C@H](n4ccc(N)nc4=O)O3)N(C)C)C[C@@H](COP(=O)(N(C)C)N3C[C@@H](COP(=O)(N(C)C)N4C[C@@H](COP(=O)(N(C)C)N5CCN(C(=O)CCNC(=O)CCCCCNC(=O)[C@H](Cc6ccccc6)NC(=O)[C@H](Cc6ccccc6)NC(=O)[C@@H](N)CCCNC(=N)N)CC5)O[C@@H](n5ccc(N)nc5=O)C4)O[C@@H](n4cc(C)c(=O)[nH]c4=O)C3)O2)c(=O)[nH]c1=O (stereo partly specified) | > 80
6 | Cc1cn([C@H]2CN(P(=O)(OC[C@@H]3CN(P(=O)(OC[C@@H]4CN(P(=O)(OC[C@@H]5CN(P(=O)(OC[C@@H]6CN(P(=O)(OC[C@@H]7CN(P(=O)(OC[C@@H]8CN(P(=O)(OC[C@@H]9CN(P(=O)(OC[C@@H]%10CNC[C@H](n%11cnc%12c(=O)[nH]c(N)nc%12%11)O%10)N(C)C)C[C@H](n%10cc(C)c(=O)[nH]c%10=O)O9)N(C)C)C[C@H](n9cnc%10c(=O)[nH]c(N)nc%109)O8)N(C)C)C[C@H](n8cnc9c(N)ncnc98)O7)N(C)C)C[C@H](n7cc(C)c(=O)[nH]c7=O)O6)N(C)C)C[C@H](n6cnc7c(N)ncnc76)O5)N(C)C)C[C@H](n5cnc6c(=O)[nH]c(N)nc65)O4)N(C)C)C[C@H](n4ccc(N)nc4=O)O3)N(C)C)C[C@@H](COP(=O)(N(C)C)N3C[C@@H](COP(=O)(N(C)C)N4C[C@@H](COP(=O)(N(C)C)N5CCN(C(=O)CCNC(=O)CCCCCNC(=O)[C@H](CCCCN)NC(=O)CCCCNC(=O)[C@H](CCCCN)NC(=O)[C@H](CCCCN)NC(=O)CCCCNC(=O)[C@H](CCCCN)NC(=O)[C@H](CCCCN)NC(=O)CCCCNC(=O)[C@H](CCCCN)NC(=O)[C@H](CCCCN)NC(=O)CCCCNC(=O)[C@@H](N)CCCCN)CC5)O[C@@H](n5ccc(N)nc5=O)C4)O[C@@H](n4cc(C)c(=O)[nH]c4=O)C3)O2)c(=O)[nH]c1=O (stereo partly specified) | 20 (≈ 108 µg/mL)
